According to patent US4859688A, “Method for the treatment and prevention of arteriosclerosis with nitrophenyl substituted dihydropyridines” (priority 1984, dated 1989):

Assays:
[1] = tested on: rabbit carotid artery; experiment: Effect on arteriosclerotic change induced by cuff in rabbit carotid artery (Test 1); format: in vivo; details: intramuscular, 5 days each week, 3 weeks, index scale 0-3
Description: Effect on arteriosclerotic change induced by cuff in rabbit carotid artery
The arteriosclerosis which is characterized by intimal thickening was made in rabbits (about 2 kg weight) by the following method.
Under pentobarbital anesthesia, the left carotid artery was isolated from the surrounding tissue, put into a cuff (1.5 cm long PE-280) through a longitudinal slit and was returned to the place as it was. Then, the wound was sutured and the rabbits were recovered and fed with normal diet. Three weeks after surgery, the rabbits were anesthetized with pentobarbital and sections were taken of the carotid artery. The part of the artery covered by a cuff was examined under microscope for the arteriosclerotic index which was rated at 0, 1, 2 and 3 according to the degree of intimal thickening. For each rabbit, about 30 transverse sections were taken at random, and the mean arteriosclerotic index was used for the determination of the effect. Test Compound was suspended in 0.5% methyl cellulose and injected intramuscularly for 5 days each week beginning from one day after cuff treatment to one day before sacrifice. The injection volume was adjusted to 0.5 ml/kg.

[2] = tested on: rabbit carotid artery; experiment: Induction of intimal thickening of rabbit carotid artery by polyethylene cuff treatment (Test 2); format: in vivo, male Japanese white rabbits; details: intramuscular once a day, 3 weeks, index scale 0-3
Description: Induction of intimal thickening of rabbit carotid artery by polyethylene cuff treatment Eight (8) male Japanese white rabbits weighing about 2 kg were used for each test group. The rabbits were anesthetized with 12.5 mg/kg petobarbital and the left carotid artery was isolated with care not to injure the surrounding tissues. A polyethylene cuff (1.5 cm long PE280, inner diameter 2.15 mm, outer diameter 3.25 mm, made by Becton Dickinson & Co.) was placed around the artery according to the technique reported by Rosnowski et al. (CR. Acad, Sci. Paris, 271 (1970) 1467). The rabbits were maintained for 3 weeks on normal diet and water. Test Compounds and vehicles were given intramuscularly once a day starting from the day of cuff-placement. At the end of the 3rd week, the rabbits were heparinized (500 U, i.v.), and the artery was removed, washed free of blood with saline, fixed by immersion in 10% formalin and divided into 8 cross segments about 2 mm long. The segments were embedded in paraffin and cut into transverse sections. These sections were stained with orcein. About 70 transverse sections were prepared from each artery and used for the quantitation of the Arteriosclerotic Index. Quantitation of Arteriosclerotic Index The arterial sections were observed by light microscopy and the Arteriosclerotic Index was scored as follows. 0: No thickening. 1: slight hyperplasia in the subendothelial space with intima-media ratio of about 1/10. 2: several layers of cells in the subendothelial space with intima-media ratio of about 1/5, or parts of the subendothelial space with more hyperplasia. 3: sever hyperplasia throughout the subendothelial space with intima-media ratio of more than 1/3.

[3] = tested on: rat aortic smooth muscle cells (SMC); experiment: Inhibition of migration of smooth muscle cell (SMC), modified Boyden chamber (Test 3); format: cell-based, rat (male Wistar); details: 5% zymosan-activated air pouch exudates as attractant, 8 hours, 37° C.
Description: Inhibition of migration of smooth muscle cell (SMC)
Preparation of inflammatory exudates from zymosan-activated air pouch in rats:
Inflammatory exudates were obtained according to the method of Konno and Tsurufuji [Br. J. Pharmacol., 80 (1983) 269]. Seven-week-old male Wistar rats were injected subcutaneously with 12 ml of air on the back to make a pouch. Twenty-four hours later 6 ml of 1.6% (W/V) zymosan suspension in 0.5% (W/V) methyl cellulose solution in saline was injected into the pouch to induce inflammation. After 3 days the inflammatory exudates were collected with pipets and centrifuged for 15 minutes at 2,000 G. The supernatant was stored at -80° C. until used.
Culture of rat aortic smooth muscle cells (SMC):
Rat aortic SMC were isolated and cultured by the method of Ross [J. Cell Biol. 50 (1971) 172]. […]
Migration of SMC was examined in modified Boyden chambers using a filter membrane with pores of 8 μm diameter [Atherosclerosis, 43 (1982) 143]. […] SMC migration was quantitated microscopically by counting the number of cells that migrated into the filter to a depth of 30μm. Ten high-power fields (HPF, x 400) were examined for each filter and cell migration was expressed as cells per 10 HPF.

[4] = tested on: thoracic aorta; experiment: Inhibition of vitamin-D3-induced rise in Ca content of the thoracic aorta (Test 4); details: for Ca content of the thoracic aorta (means± standard error): 10μg/kg 1-α hydroxyvitamin D3 orally once a day for 2 weeks; for ED50: Rattus norvegicus, po, 336 h, read-out: ED50, inhibition of vitamin-D3-induced rise in Ca content of the thoracic aorta

Compound	Arteriosclerotic Index ([1]; 1.0 mg/kg)	Arteriosclerotic Index ([1]; 10 mg/kg)	Arteriosclerotic Index (mean±standard error) ([2]; 1 mg/kg)	Arteriosclerotic Index (mean±standard error) ([2]; 10 mg/kg)	IC50 [3] [nM]	Ca content of the thoracic aorta (means± standard error) ([4]; 0.1 mg/kg per os twice a day)	Ca content of the thoracic aorta (means± standard error) ([4]; 1 mg/kg per os twice a day)	Ca content of the thoracic aorta (means± standard error) ([4]; 10 mg/kg per os twice a day)	Ca content of the thoracic aorta (means± standard error) ([4]; 100 mg/kg per os twice a day)	ED50 [4] [mg/kg]
COC(=O)C1=C(C#N)NC(C)=C(C(=O)OC(C)C)C1c1cccc([N+](=O)[O-])c1 (centres unmarked) [Dihydropyridine Compound A, Isopropyl ester of 6-cyano-5-methoxycarbonyl-2-methyl-4-(3-nitrophenyl)-1,4-dihydropyridine-3-carboxylic acid]	0.85 ± 0.16	0.61 ± 0.21	0.85 ±0.15	0.61 ±0.19	0.033	94 ± 9 % of control	57 ± 13 % of control	27 ± 6 % of control	8 ± 3 % of control	2.2
COC(=O)C1=C(C)NC(C)=C(C(=O)OC)C1c1ccccc1[N+](=O)[O-] [Nifedipine, Dimethyl ester of 2,6-dimethyl-4-(2-nitrophenyl)-1,4-dihydropyridine-3,5-dicarboxylic acid, reference compound]	–	–	0.94 ±0.21	1.19 ±0.26	0.17	–	93 ± 15 % of control	58 ± 15 % of control	30 ± 10 % of control	23.2
